Legend:
Test in all cases: Test C postemergence
Type in all cases: in vivo
[1] = test system: goosegrass (Eleusine indica)
Outline: (§1)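 Response scores (0 no effect to 100 complete control) came from visual comparison with untreated controls 12 to 14 days after treatment. Preemergence application was made to seeded soil; postemergence, to plants at the 1- to 4-leaf stage.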

[2] = test system: common ragweed (Ambrosia elatior)
Outline: as §1

corn (Zea mays) = test system: corn (Zea mays)
Outline: as §1

[3] = test system: bermudagrass (Cynodon dactylon)
Outline: as §1

[4] = test system: chickweed (Stellaria media)
Outline: as §1

[5] = test system: pigweed (Amaranthus retroflexus)
Outline: as §1

[6] = test system: yellow nutsedge (Cyperus esculentus)
Outline: as §1

kochia (Kochia scoparia) = test system: kochia (Kochia scoparia)
Outline: as §1

[7] = test system: giant foxtail (Setaria faberii)
Outline: as §1

soybean (Glycine max) = test system: soybean (Glycine max)
Outline: as §1

[8] = test system: woolly cupgrass (Eriochloa villosa)
Outline: as §1

[9] = test system: crabgrass (Digitaria sanguinalis)
Outline: as §1

[10] = test system: Surinam grass (Brachiaria decumbens)
Outline: as §1

[11] = test system: lambsquarters (Chenopodium album)
Outline: as §1

[12] = test system: velvetleaf (Abutilon theophrasti)
Outline: as §1

[13] = test system: johnsongrass (Sorghum halepense)
Outline: as §1

[14] = test system: cocklebur (Xanthium strumarium)
Outline: as §1

[15] = Rate 125 g/ha, scale 0 to 100, 0 no effect, 100 complete control
[16] = Rate 250 g/ha, scale 0 to 100 (0 no effect, 100 complete control)
[17] = Rate 500 g/ha, scale 0 to 100 (0 no effect, 100 complete control)

For `CCC(CC)c1ccn(C2OCN(c3cccc(OC(F)(F)F)c3)C2=O)n1` (stereo not shown) [Compound 68], the “Plant response rating, Goosegrass” value ([1]; Rate 62 g/ha, scale 0 to 100) was 0, the “Plant response rating, Goosegrass” value [1, 15] was 0 and the “Plant response rating, Goosegrass” value [1, 16] was 0. The “Plant response rating, Goosegrass” value [1, 17] was 0, the “Plant response rating, Ragweed, Common” value ([2]; Rate 62 g/ha, scale 0 to 100) was 0 and the “Plant response rating, Ragweed, Common” value [2, 15] was 0. For the same compound, the “Plant response rating, Ragweed, Common” value [2, 16] was 0, the “Plant response rating, Ragweed, Common” value [2, 17] was 30 and the “Plant response rating, Corn” value (corn (Zea mays); Rate 62 g/ha, scale 0 to 100) was 0. For the same compound, the “Plant response rating, Corn” value (corn (Zea mays); [15]) was 0, the “Plant response rating, Corn” value (corn (Zea mays); [16]) was 0 and the “Plant response rating, Corn” value (corn (Zea mays); [17]) was 0. For the same compound, the “Plant response rating, Bermudagrass” value ([3]; Rate 62 g/ha, scale 0 to 100) was 0, the “Plant response rating, Bermudagrass” value [3, 15] was 0 and the “Plant response rating, Bermudagrass” value [3, 16] was 20. The “Plant response rating, Bermudagrass” value [3, 17] was 40, the “Plant response rating, Chickweed” value ([4]; Rate 62 g/ha, scale 0 to 100) was 30 and the “Plant response rating, Chickweed” value [4, 15] was 40. The “Plant response rating, Chickweed” value [4, 16] was 70, the “Plant response rating, Chickweed” value [4, 17] was 80 and the “Plant response rating, Pigweed” value ([5]; Rate 62 g/ha, scale 0 to 100) was 60. The “Plant response rating, Pigweed” value [5, 15] was 70, the “Plant response rating, Pigweed” value [5, 16] was 70 and the “Plant response rating, Pigweed” value [5, 17] was 100. For the same compound, the “Plant response rating, Nutsedge” value ([6]; Rate 62 g/ha, scale 0 to 100) was 0, the “Plant response rating, Nutsedge” value [6, 15] was 0 and the “Plant response rating, Nutsedge” value [6, 16] was 0. For the same compound, the “Plant response rating, Nutsedge” value [6, 17] was 0, the “Plant response rating, Kochia” value (kochia (Kochia scoparia); Rate 62 g/ha, scale 0 to 100) was 50 and the “Plant response rating, Kochia” value (kochia (Kochia scoparia); [15]) was 70. The “Plant response rating, Kochia” value (kochia (Kochia scoparia); [16]) was 70, the “Plant response rating, Kochia” value (kochia (Kochia scoparia); [17]) was 70 and the “Plant response rating, Foxtail, Giant” value ([7]; Rate 62 g/ha, scale 0 to 100) was 0. The “Plant response rating, Foxtail, Giant” value [7, 15] was 0, the “Plant response rating, Foxtail, Giant” value [7, 16] was 0 and the “Plant response rating, Foxtail, Giant” value [7, 17] was 0. For the same compound, the “Plant response rating, Soybean” value (soybean (Glycine max); Rate 62 g/ha, scale 0 to 100) was 0, the “Plant response rating, Soybean” value (soybean (Glycine max); [15]) was 0 and the “Plant response rating, Soybean” value (soybean (Glycine max); [16]) was 0. The “Plant response rating, Soybean” value (soybean (Glycine max); [17]) was 20, the “Plant response rating, Cupgrass, Woolly” value ([8]; Rate 62 g/ha, scale 0 to 100) was 0 and the “Plant response rating, Cupgrass, Woolly” value [8, 15] was 0. For the same compound, the “Plant response rating, Cupgrass, Woolly” value [8, 16] was 0, the “Plant response rating, Cupgrass, Woolly” value [8, 17] was 30 and the “Plant response rating, Crabgrass” value ([9]; Rate 62 g/ha, scale 0 to 100) was 0. For the same compound, the “Plant response rating, Crabgrass” value [9, 15] was 0, the “Plant response rating, Crabgrass” value [9, 16] was 0 and the “Plant response rating, Crabgrass” value [9, 17] was 60. The “Plant response rating, Surinam grass” value ([10]; Rate 62 g/ha, scale 0 to 100) was 0, the “Plant response rating, Surinam grass” value [10, 15] was 0 and the “Plant response rating, Surinam grass” value [10, 16] was 0. The “Plant response rating, Surinam grass” value [10, 17] was 0, the “Plant response rating, Lambsquarters” value ([11]; Rate 62 g/ha, scale 0 to 100) was 60 and the “Plant response rating, Lambsquarters” value [11, 15] was 80. For the same compound, the “Plant response rating, Lambsquarters” value [11, 16] was 80, the “Plant response rating, Lambsquarters” value [11, 17] was 100 and the “Plant response rating, Velvetleaf” value ([12]; Rate 62 g/ha, scale 0 to 100) was 0. For the same compound, the “Plant response rating, Velvetleaf” value [12, 15] was 0, the “Plant response rating, Velvetleaf” value [12, 16] was 0 and the “Plant response rating, Velvetleaf” value [12, 17] was 30. The “Plant response rating, Johnsongrass” value ([13]; Rate 62 g/ha, scale 0 to 100) was 0, the “Plant response rating, Johnsongrass” value [13, 15] was 0 and the “Plant response rating, Johnsongrass” value [13, 16] was 0. For the same compound, the “Plant response rating, Johnsongrass” value [13, 17] was 20, the “Plant response rating, Cocklebur” value ([14]; Rate 62 g/ha, scale 0 to 100) was 0 and the “Plant response rating, Cocklebur” value [14, 15] was 0. For the same compound, the “Plant response rating, Cocklebur” value [14, 16] was 0 and the “Plant response rating, Cocklebur” value [14, 17] was 50.
In the case of `CCC(C)c1ccn(C2CCN(c3ccc(C)c(OC)c3)C2=O)n1` (stereo not shown) [Compound 80], the “Plant response rating, Goosegrass” value ([1]; Rate 62 g/ha, scale 0 to 100) is reported as 0, the “Plant response rating, Goosegrass” value [1, 15] is reported as 0 and the “Plant response rating, Goosegrass” value [1, 16] is reported as 0. The “Plant response rating, Goosegrass” value [1, 17] was 0, the “Plant response rating, Ragweed, Common” value ([2]; Rate 62 g/ha, scale 0 to 100) was 0 and the “Plant response rating, Ragweed, Common” value [2, 15] was 0. For the same compound, the “Plant response rating, Ragweed, Common” value [2, 16] was 50, the “Plant response rating, Ragweed, Common” value [2, 17] was 80 and the “Plant response rating, Corn” value (corn (Zea mays); Rate 62 g/ha, scale 0 to 100) was 0. For the same compound, the “Plant response rating, Corn” value (corn (Zea mays); [15]) was 0, the “Plant response rating, Corn” value (corn (Zea mays); [16]) was 0 and the “Plant response rating, Corn” value (corn (Zea mays); [17]) was 0. For the same compound, the “Plant response rating, Bermudagrass” value ([3]; Rate 62 g/ha, scale 0 to 100) was 0, the “Plant response rating, Bermudagrass” value [3, 15] was 0 and the “Plant response rating, Bermudagrass” value [3, 16] was 0. The “Plant response rating, Bermudagrass” value [3, 17] was 20, the “Plant response rating, Chickweed” value ([4]; Rate 62 g/ha, scale 0 to 100) was 20 and the “Plant response rating, Chickweed” value [4, 15] was 20. For the same compound, the “Plant response rating, Chickweed” value [4, 16] was 30, the “Plant response rating, Chickweed” value [4, 17] was 60 and the “Plant response rating, Pigweed” value ([5]; Rate 62 g/ha, scale 0 to 100) was 20. The “Plant response rating, Pigweed” value [5, 15] was 40, the “Plant response rating, Pigweed” value [5, 17] was 70 and the “Plant response rating, Nutsedge” value ([6]; Rate 62 g/ha, scale 0 to 100) was 0. The “Plant response rating, Nutsedge” value [6, 15] was 20, the “Plant response rating, Nutsedge” value [6, 16] was 20 and the “Plant response rating, Nutsedge” value [6, 17] was 20. For the same compound, the “Plant response rating, Kochia” value (kochia (Kochia scoparia); Rate 62 g/ha, scale 0 to 100) was 0, the “Plant response rating, Kochia” value (kochia (Kochia scoparia); [15]) was 0 and the “Plant response rating, Kochia” value (kochia (Kochia scoparia); [16]) was 30. The “Plant response rating, Kochia” value (kochia (Kochia scoparia); [17]) was 50, the “Plant response rating, Foxtail, Giant” value ([7]; Rate 62 g/ha, scale 0 to 100) was 0 and the “Plant response rating, Foxtail, Giant” value [7, 15] was 0. For the same compound, the “Plant response rating, Foxtail, Giant” value [7, 16] was 0, the “Plant response rating, Foxtail, Giant” value [7, 17] was 20 and the “Plant response rating, Soybean” value (soybean (Glycine max); Rate 62 g/ha, scale 0 to 100) was 50. The “Plant response rating, Soybean” value (soybean (Glycine max); [15]) was 60, the “Plant response rating, Soybean” value (soybean (Glycine max); [16]) was 70 and the “Plant response rating, Soybean” value (soybean (Glycine max); [17]) was 90. The “Plant response rating, Cupgrass, Woolly” value ([8]; Rate 62 g/ha, scale 0 to 100) was 0, the “Plant response rating, Cupgrass, Woolly” value [8, 15] was 0 and the “Plant response rating, Cupgrass, Woolly” value [8, 16] was 0. The “Plant response rating, Cupgrass, Woolly” value [8, 17] was 0, the “Plant response rating, Crabgrass” value ([9]; Rate 62 g/ha, scale 0 to 100) was 0 and the “Plant response rating, Crabgrass” value [9, 15] was 0. The “Plant response rating, Crabgrass” value [9, 16] was 0, the “Plant response rating, Crabgrass” value [9, 17] was 30 and the “Plant response rating, Surinam grass” value ([10]; Rate 62 g/ha, scale 0 to 100) was 0. For the same compound, the “Plant response rating, Surinam grass” value [10, 15] was 0, the “Plant response rating, Surinam grass” value [10, 16] was 0 and the “Plant response rating, Surinam grass” value [10, 17] was 0. The “Plant response rating, Lambsquarters” value ([11]; Rate 62 g/ha, scale 0 to 100) was 10, the “Plant response rating, Lambsquarters” value [11, 17] was 90 and the “Plant response rating, Velvetleaf” value ([12]; Rate 62 g/ha, scale 0 to 100) was 20. The “Plant response rating, Velvetleaf” value [12, 15] was 20, the “Plant response rating, Velvetleaf” value [12, 16] was 20 and the “Plant response rating, Velvetleaf” value [12, 17] was 20. For the same compound, the “Plant response rating, Johnsongrass” value ([13]; Rate 62 g/ha, scale 0 to 100) was 0, the “Plant response rating, Johnsongrass” value [13, 15] was 0 and the “Plant response rating, Johnsongrass” value [13, 16] was 0. The “Plant response rating, Johnsongrass” value [13, 17] was 0, the “Plant response rating, Cocklebur” value ([14]; Rate 62 g/ha, scale 0 to 100) was 20 and the “Plant response rating, Cocklebur” value [14, 15] was 30. For the same compound, the “Plant response rating, Cocklebur” value [14, 16] was 30 and the “Plant response rating, Cocklebur” value [14, 17] was 40.

— patent publication US7138361B2, “Herbicidal heterocycles” (E. I. du Pont de Nemours and Company, priority 2000, dated 2006)
